Laboratory results reported in US4316884A, “Sustained release pharmaceutical formulation” (Adria Laboratories, Inc., priority 1980, dated 1982).
“Also recorded” adds a separate entry of the source.

Legend:
[1] = plasma levels of indoprofen in mice after oral gavage (HPLC-UV); type: in vivo
Procedure: Plasma levels of indoprofen are determined in adult mice (22-25 g.) following oral gavage of either pure drug or microencapsulated drug. Drugs are administered at 1% of the body weight. Each treatment group in a single experiment contains four animals and the data is pooled for evaluation. Animals are sacrificed by decapitation. Blood from each treatment group is collected and pooled in heparinized tubes. Plasma is collected and frozen for assay of indoprofen concentration. Plasma indoprofen concentration is determined by high pressure liquid chromatography fitted with a UV detector; concentration is determined at max. 284 nm.
Plasma Level (μg/ml) of Indoprofen in Mice,
Administered Orally as a Suspension*
*Aqueous suspension containing 0.5% methylcellulose and 0.06% surface
^a The apparent rate of elimination, Ke is calculated using a on
compartment open model system as described by J. G. Wagner
Biopharmaceutics and Relevant Pharmacokinetics, page 180, Hamilton Press

[2] = clinical analgesic/anti-inflammatory efficacy and side effects in man; type: in vivo
Procedure: The analgesic dose for indoprofen in man is low in comparison to the anti-inflammatory dose, i.e., in the order of 100 to 600 mg. per day.
However, the dose necessary for indoprofen to exert an anti-inflammatory activity is higher than the analgesic dose, i.e., in the order of 800 to 1200 mg. per day. […] At this dose gastrointestinal ulceration and other side effects are […].

[3] = human, in vivo
[4] = humans; cited from earlier work
[5] = acidic pH of the stomach, unionized; cited from earlier work
[6] = in vivo; cited from earlier work

CC(C(=O)O)c1ccc(N2Cc3ccccc3C2=O)cc1 (stereo not drawn) [indoprofen, alpha-[4-(1-oxo-2-isoindolinyl)-phenyl]propionic acid]
half-life ([1]; mouse, plasma, oral suspension): 324 min | concentration at 2 h ([1]; mouse, plasma, oral suspension, 2 hours, mean and standard error, read-out: Plasma Level of Indoprofen): 2490 ± 450 ng/mL | concentration at 4 h ([1]; mouse, plasma, oral suspension, 4 hours, mean and standard error, read-out: Plasma Level of Indoprofen): 1620 ± 150 ng/mL | concentration at 8 h ([1]; mouse, plasma, oral suspension, 8 hours, mean and standard error, read-out: Plasma Level of Indoprofen): 890 ± 240 ng/mL | concentration at 16 h ([1]; mouse, plasma, oral suspension, 16 hours, mean and standard error, read-out: Plasma Level of Indoprofen): 490 ± 170 ng/mL | concentration at 32 h ([1]; mouse, plasma, oral suspension, 32 hours, mean and standard error, read-out: Plasma Level of Indoprofen): 430 ng/mL | k el ([1]; mouse, plasma, oral suspension, one compartment open model, read-out: Ke, apparent rate of elimination (converted)): 3.54e-05 s⁻¹ | AUC ([1]; mouse, plasma, oral, 1% of the body weight, read-out: area under the plasma curve): 24500 ng·h/mL | Cmax ([1]; mouse, plasma, oral, 1% of the body weight, read-out: plasma peak height): 2500 ng/mL | bioavailability, pure drug versus microencapsulated form ([1]; oral): bioequivalent; also recorded: equivalent bioavailability | plasma peak height, pure drug relative to microencapsulated drug ([1]; oral, listed as pure drug): two times that of microencapsulated form; also recorded: two times that of the microencapsulated drug | safety in prolonged therapy ([2]; clinical studies, above 800 mg., especially 1200 mg., per day): has not been shown to be safe for prolonged therapy | safety classification ([2]; clinical studies, up to 800 mg. per day): safe dose | effectiveness in osteoarthritis ([2]; man, 800 mg. per day): effective in the treatment of osteoarthritis | gastrointestinal ulceration and other side effects ([2]; man, 800 mg. per day): minimal | effectiveness in rheumatoid arthritis ([2]; man, 1200 mg. per day): effective in the treatment of rheumatoid arthritis | gastrointestinal ulceration and other side effects ([2]; man, 1200 mg. per day): the incidence of gastrointestinal ulceration and other side effects are recognized | analgesic effect ([2]; man, 100 to 600 mg. per day): maximum analgesic effect | side effects ([2]; man, 100 to 600 mg. per day): minimal or negligible side effects | plasma peak height and bioavailability (total area under the plasma curve) as dose is increased [3]: increases in a linear fashion | plasma half-life (t 1/2) [4]: 2.1 to 5.4 h | solubility [5]: poorly soluble | anti-inflammatory and analgesic properties [6]: excellent anti-inflammatory and analgesic properties
